Here are results for one compound from PMC2882941 (Pharmaceutical research, 2009).

The data set deals with T1, hASBT (Homo sapiens, UniProt Q12908).
T1 sequence (Q12908 1-348): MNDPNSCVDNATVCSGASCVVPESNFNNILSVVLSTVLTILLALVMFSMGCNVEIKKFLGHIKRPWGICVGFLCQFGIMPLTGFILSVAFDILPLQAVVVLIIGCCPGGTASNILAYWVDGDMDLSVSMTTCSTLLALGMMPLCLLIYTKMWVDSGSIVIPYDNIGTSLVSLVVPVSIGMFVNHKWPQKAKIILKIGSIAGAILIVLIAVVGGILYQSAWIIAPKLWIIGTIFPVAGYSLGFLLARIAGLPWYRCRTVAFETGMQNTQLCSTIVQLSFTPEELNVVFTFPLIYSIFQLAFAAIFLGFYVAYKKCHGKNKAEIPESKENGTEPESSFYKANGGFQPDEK
As to the kind of experiment: in vitro. To be noted: MDCK.

Turning to `C[C@H](CCC(=O)NCCS(=O)(=O)O)[C@H]1CC[C@H]2[C@@H]3[C@H](O)C[C@@H]4C[C@H](O)CC[C@]4(C)[C@H]3C[C@H](O)[C@]12C` [TCA, Taurocholate], the Papp – broadly, the rate of passage across a membrane or cell layer, normalised by area and donor concentration – lay within 0.089 to 0.3 ×10⁻⁶ cm/s.
